# According to patent publication US20240293558A1, “KRAS INHIBITOR CONJUGATES” (Erasca, Inc., priority 2021, published 2024):
# Like-named read-outs stand apart in the source and are kept apart here.
# Experiments:
# KRAS G12D = KRAS G12D (Homo sapiens, UniProt P01116, G12D); assay: In-vitro RAS-RAF binding assay (RRB), HTRF/FRET; type: biochemical; set-up: Biotinylated KRAS protein amino acids 1-169 (produced at Erasca); made in house; settings: read-out: Inhibition of RAS-RAF Binding (in-vitro) KRAS (G12D) IC50
# Chain of KRAS G12D (P01116 1-169 isoform P01116-2 G12D): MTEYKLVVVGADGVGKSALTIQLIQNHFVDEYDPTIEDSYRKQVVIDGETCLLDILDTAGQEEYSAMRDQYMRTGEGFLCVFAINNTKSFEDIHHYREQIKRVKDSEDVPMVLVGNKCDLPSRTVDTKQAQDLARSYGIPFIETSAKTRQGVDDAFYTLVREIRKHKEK
# Description: (§1) Biotinylated KRAS protein amino acids 1-169 (produced at […]) is labeled with streptavidin-terbium (lanthanide cryptate donor fluorophore) in assay buffer (50 mM HEPES, pH 7.5, 100 mM NaCl, 1 mM MgCl2, 1 mM DTT) at a final concentration of 30 nM. In a separate reaction mixture, 30 nM cRAF (RBD) (Abcam, Cambridge MA) is labeled with anti-GST d2 (acceptor fluorophore). Labeling reactions are incubated for 1 hour at room temperature. […] Following the compound incubation, SOS1 catalytic domain (produced at […]) and GTPgS are added to the reaction to initiate nucleotide exchange (60 minutes exchange reaction). Once in the GTP state KRAS will bind to cRAF. No binding will occur if KRAS remains in the GDP state. Compounds may block nucleotide exchange or may create a steric obstruction to cRAF-KRAS interaction by binding to the RAS effector site. […] A portion of this mixture is transferred to a white 384-well plate (20 uL per well in duplicate) and read on an HTRF compatible plate reader (ClarioSTAR). Fluorescent resonance energy transfer (FRET) is measured at equilibrium. FRET signal will be high if KRAS-cRAF binding occurs. FRET signal will be low if KRAS-cRAF binding is inhibited by the test compound. Table 2 represents the average of multiple runs of each compound.
# KRAS (WT) = target: T1, KRAS (WT) (Homo sapiens, UniProt P01116); assay: In-vitro RAS-RAF binding assay (RRB), HTRF/FRET; type: biochemical; settings: read-out: Inhibition of RAS-RAF Binding (in-vitro) KRAS (WT) IC50
# T1 construct: Biotinylated KRAS protein amino acids 1-169 (produced at Erasca); made in house
# T1 sequence (P01116 1-169 isoform P01116-2): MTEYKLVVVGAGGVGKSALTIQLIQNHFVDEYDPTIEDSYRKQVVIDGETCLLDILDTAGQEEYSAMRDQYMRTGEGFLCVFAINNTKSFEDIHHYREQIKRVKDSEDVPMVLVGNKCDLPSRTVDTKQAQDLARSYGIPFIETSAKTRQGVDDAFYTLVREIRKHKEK
# Description: as §1
# [1] = Table 2, average of multiple runs of each compound
SMILES,IC50 (KRAS G12D; [1]),IC50 (KRAS (WT); [1]),IC50 (KRAS G12D; Table 1),IC50 (KRAS (WT); Table 1)
"Cc1cc(N)nc(-c2c(Cl)cc3c(N4CC5CCC(C4)N5)nc(OC[C@@H]4CCCN4CCCCCCCN4CCC(c5cc(F)cc6c5CN(C5CCC(=O)NC5=O)C6=O)CC4)nc3c2F)c1C(F)(F)F (stereo partly drawn) [Example 5, 3-[4-[1-[7-[(2S)-2-[[7-[6-amino-4-methyl-3-(trifluoromethyl)-2-pyridyl]-6-chloro-4-(3,8-diazabicyclo[3.2.1]octan-3-yl)-8-fluoro-quinazolin-2-yl]oxymethyl]pyrrolidin-1-yl]heptyl]-4-piperidyl]-6-fluoro-1-oxo-isoindolin-2-yl]piperidine-2,6-dione]",18.8 nM,4920 nM,19 nM,2440 nM
"Cc1ncsc1-c1ccc([C@H](C)NC(=O)[C@@H]2C[C@@H](O)CN2C(=O)[C@@H](NC(=O)CCCCN2CC[C@H]2COc2nc(N3CC4CCC(C3)N4)c3cc(Cl)c(-c4ccc(F)c5sc(N)c(C#N)c45)c(F)c3n2)C(C)(C)C)cc1 [Example 23, (2S,4R)-1-((2S)-2-(5-((2S)-2-(((7-(2-amino-3-cyano-7-fluorobenzo[b]thiophen-4-yl)-4-(3,8-diazabicyclo[3.2.1]octan-3-yl)-6-chloro-8-fluoroquinazolin-2-yl)oxy)methyl)azetidin-1-yl)pentanamido)-3,3-dimethylbutanoyl)-4-hydroxy-N—((S)-1-(4-(4-methylthiazol-5-yl)phenyl)ethyl)pyrrolidine-2-carboxamide]",12.6 nM,65 nM,,
"Cc1ncsc1-c1ccc([C@H](C)NC(=O)[C@@H]2C[C@@H](O)CN2C(=O)[C@@H](NC(=O)CCCCN2CCC[C@H]2COc2nc(N3CC4CCC(C3)N4)c3cnc(-c4cc(O)cc5cccc(F)c45)c(F)c3n2)C(C)(C)C)cc1 [Example 82, (2S,4R)-1-((2S)-2-(5-((2S)-2-(((4-(3,8-diazabicyclo[3.2.1]octan-3-yl)-8-fluoro-7-(8-fluoro-3-hydroxynaphthalen-1-yl)pyrido[4,3-d]pyrimidin-2-yl)oxy)methyl)pyrrolidin-1-yl)pentanamido)-3,3-dimethylbutanoyl)-4-hydroxy-N-((S)-1-(4-(4-methylthiazol-5-yl)phenyl)ethyl)pyrrolidine-2-carboxamide]",8.52 nM,304 nM,,
"C#Cc1c(F)ccc2cc(O)cc(-c3ncc4c(N5CC6CCC(C5)N6)nc(OC[C@@H]5CCCN5CCCC5CCC(=O)N5[C@H](C(=O)N5C[C@H](O)C[C@H]5C(=O)N[C@@H](C)c5ccc(-c6scnc6C)cc5)C(C)(C)C)nc4c3F)c12 (stereo partly drawn) [Example 10, (2S,4R)-1-((2S)-2-(2-(3-((2S)-2-(((4-(3,8-diazabicyclo[3.2.1]octan-3-yl)-7-(8-ethynyl-7-fluoro-3-hydroxynaphthalen-1-yl)-8-fluoropyrido[4,3-d]pyrimidin-2-yl)oxy)methyl)pyrrolidin-1-yl)propyl)-5-oxopyrrolidin-1-yl)-3,3-dimethylbutanoyl)-4-hydroxy-N—((S)-1-(4-(4-methylthiazol-5-yl)phenyl)ethyl)pyrrolidine-2-carboxamide]",12.7 nM,134 nM,,
"C#Cc1c(F)ccc2cc(O)cc(-c3ncc4c(N5CC6CCC(C5)N6)nc(OC[C@@H]5CCCN5CCCOCCC(=O)N[C@H](C(=O)N5C[C@H](O)C[C@H]5C(=O)N[C@@H](C)c5ccc(-c6cccc(F)c6F)cc5)C(C)(C)C)nc4c3F)c12 [Example 51, (2S,4R)-1-((2S)-2-(3-(3-((2S)-2-(((4-(3,8-diazabicyclo[3.2.1]octan-3-yl)-7-(8-ethynyl-7-fluoro-3-hydroxynaphthalen-1-yl)-8-fluoropyrido[4,3-d]pyrimidin-2-yl)oxy)methyl)pyrrolidin-1-yl)propoxy)propanamido)-3,3-dimethylbutanoyl)-N-((S)-1-(2′,3′-difluoro-[1,1′-biphenyl]-4-yl)ethyl)-4-hydroxypyrrolidine-2-carboxamide]",9.09 nM,95.7 nM,,
"C#Cc1c(F)ccc2cc(O)cc(-c3ncc4c(N5CC6CCC(C5)N6)nc(OC[C@@H]5CCCN5CCCOCC(=O)N[C@H](C(=O)N5C[C@H](O)C[C@H]5C(=O)N[C@@H](C)c5ccc(-c6c(F)ccc(F)c6F)cc5)C(C)(C)C)nc4c3F)c12 [Example 53, (2S,4R)-1-((2S)-2-(2-(3-((2S)-2-(((4-(3,8-diazabicyclo[3.2.1]octan-3-yl)-7-(8-ethynyl-7-fluoro-3-hydroxynaphthalen-1-yl)-8-fluoropyrido[4,3-d]pyrimidin-2-yl)oxy)methyl)pyrrolidin-1-yl)propoxy)acetamido)-3,3-dimethylbutanoyl)-4-hydroxy-N-((S)-1-(2′,3′,6′-trifluoro-[1,1′-biphenyl]-4-yl)ethyl)pyrrolidine-2-carboxamide]",8.82 nM,123 nM,,

# More lines, now with the values ahead:
IC50 (KRAS G12D; [1]),IC50 (KRAS (WT); [1]),IC50 (KRAS G12D; Table 1),IC50 (KRAS (WT); Table 1),SMILES
12 nM,107 nM,,,"C[C@H](NC(=O)[C@@H]1C[C@@H](O)CN1C(=O)[C@@H](NC(=O)CCOCCCN1CCC[C@H]1COc1nc(N2CC3CCC(C2)N3)c2cc(Cl)c(-c3ccc(F)c4sc(N)c(C#N)c34)c(F)c2n1)C(C)(C)C)c1ccc(-c2ccccc2Cl)cc1 [Example 25, (2S,4R)-1-((2S)-2-(3-(3-((2S)-2-(((7-(2-amino-3-cyano-7-fluorobenzo[b]thiophen-4-yl)-4-(3,8-diazabicyclo[3.2.1]octan-3-yl)-6-chloro-8-fluoroquinazolin-2-yl)oxy)methyl)pyrrolidin-1-yl)propoxy)propanamido)-3,3-dimethylbutanoyl)-N—((S)-1-(2′-chloro-[1,1′-biphenyl]-4-yl)ethyl)-4-hydroxypyrrolidine-2-carboxamide]"
17.2 nM,4250 nM,17 nM,4250 nM,"Cc1cc(N)nc(-c2c(Cl)cc3c(N4CC5CCC(C4)N5)nc(OC[C@@H]4CCCN4CCCOCCC(=O)N[C@H](C(=O)N4C[C@H](O)C[C@H]4C(=O)NCc4ccc(-c5scnc5C)cc4)C(C)(C)C)nc3c2F)c1C(F)(F)F [Example 2, (2S,4R)-1-[(2S)-2-[3-[3-[(2S)-2-[[7-[6-amino-4-methyl-3-(trifluoromethyl)-2-pyridyl]-6-chloro-4-(3,8-diazabicyclo[3.2.1]octan-3-yl)-8-fluoro-quinazolin-2-yl]oxymethyl]pyrrolidin-1-yl]propoxy]propanoylamino]-3,3-dimethyl-butanoyl]-4-hydroxy-N-[[4-(4-methylthiazol-5-yl)phenyl]methyl]pyrrolidine-2-carboxamide]"
16.3 nM,63.3 nM,,,"Cc1ncsc1-c1ccc([C@H](CO)NC(=O)[C@@H]2C[C@@H](O)CN2C(=O)[C@@H](NC(=O)CCCCN2CCC[C@H]2COc2nc(N3CC4CCC(C3)N4)c3cc(Cl)c(-c4ccc(F)c5sc(N)c(C#N)c45)c(F)c3n2)C(C)(C)C)cc1 [Example 88, (2S,4R)-1-((2S)-2-(5-((2S)-2-(((7-(2-amino-3-cyano-7-fluorobenzo[b]thiophen-4-yl)-4-(3,8-diazabicyclo[3.2.1]octan-3-yl)-6-chloro-8-fluoroquinazolin-2-yl)oxy)methyl)pyrrolidin-1-yl)pentanamido)-3,3-dimethylbutanoyl)-4-hydroxy-N-((R)-2-hydroxy-1-(4-(4-methylthiazol-5-yl)phenyl)ethyl)pyrrolidine-2-carboxamide]"
7.52 nM,73.1 nM,,,"C#Cc1c(F)ccc2cc(O)cc(-c3ncc4c(N5CC6CCC(C5)N6)nc(OC[C@@H]5CCCN5CCCOCCC(=O)N[C@H](C(=O)N5C[C@H](O)C[C@H]5C(=O)N[C@@H](C)c5ccc(-c6c(F)c(F)c(F)c(F)c6F)cc5)C(C)(C)C)nc4c3F)c12 [Example 59, (2S,4R)-1-((2S)-2-(3-(3-((2S)-2-(((4-(3,8-diazabicyclo[3.2.1]octan-3-yl)-7-(8-ethynyl-7-fluoro-3-hydroxynaphthalen-1-yl)-8-fluoropyrido[4,3-d]pyrimidin-2-yl)oxy)methyl)pyrrolidin-1-yl)propoxy)propanamido)-3,3-dimethylbutanoyl)-4-hydroxy-N-((S)-1-(2′,3′,4′,5′,6′-pentafluoro-[1,1′-biphenyl]-4-yl)ethyl)pyrrolidine-2-carboxamide]"
9.79 nM,67 nM,,,"C#Cc1c(F)ccc2cc(O)cc(-c3ncc4c(N5CC6CCC(C5)N6)nc(OC[C@@H]5CCCN5CCCOCCC(=O)N[C@H](C(=O)N5C[C@H](O)C[C@H]5C(=O)N[C@@H](C)c5ccc(-c6ccc(F)c(F)c6F)cc5)C(C)(C)C)nc4c3F)c12 [Example 55, (2S,4R)-1-((2S)-2-(3-(3-((2S)-2-(((4-(3,8-diazabicyclo[3.2.1]octan-3-yl)-7-(8-ethynyl-7-fluoro-3-hydroxynaphthalen-1-yl)-8-fluoropyrido[4,3-d]pyrimidin-2-yl)oxy)methyl)pyrrolidin-1-yl)propoxy)propanamido)-3,3-dimethylbutanoyl)-4-hydroxy-N-((S)-1-(2′,3′,4′-trifluoro-[1,1′-biphenyl]-4-yl)ethyl)pyrrolidine-2-carboxamide]"
